Legend:
human 15-PGDH = molecular target: T1, human 15-PGDH (Homo sapiens, UniProt P15428); assay: Evaluation of 15-PGDH inhibitory activity (fluorescence enzyme assay, NAD+/PGE2); type: biochemical; conditions: human 15-PGDH enzyme, fluorescence Vmax
T1 construct: purchased R&D System 5660-DH
T1 sequence (P15428 1-266): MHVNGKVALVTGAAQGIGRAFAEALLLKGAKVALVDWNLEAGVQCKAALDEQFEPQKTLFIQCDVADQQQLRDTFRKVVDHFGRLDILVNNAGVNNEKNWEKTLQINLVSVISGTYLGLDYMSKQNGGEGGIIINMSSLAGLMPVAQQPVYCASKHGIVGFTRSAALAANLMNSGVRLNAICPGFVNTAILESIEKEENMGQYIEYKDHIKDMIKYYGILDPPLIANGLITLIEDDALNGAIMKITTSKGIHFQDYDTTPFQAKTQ
Description: 15-PGDH inhibition activity of Example compounds was measured as follows. 6.7 ng of human 15-PGDH (R&D System# 5660-DH) enzyme (10 µL) was added to a black 96 well plate, 60 µL of buffer (50 mM Tris-HCl, pH 7.5, 0.01% Tween 20) was added, and 10 µL of 200 µM β-Nicotinamide adenine dinucleotide sodium salt (Sigma, Cat# N0632-5G) was added. 10 µL of (10x) compound solution in DMSO was added and reacted for 10 minutes at room temperature.

A549 cells = assay: Measurement of PGE2-increasing activity in A549 cells (IL-1β stimulated, PGE2 quantified in supernatant); type: cell-based; conditions: Homo sapiens, 24 h; concentration of 1 µM of each compound; IL-1β treated A549 cells; read-out: Increased PGE2 production in A549 cells
Description: A549 cells were prepared at a cell number of 1 x 10^5/mL in F12K medium containing 10% FBS (Fetal Bovine Serum), and 2 x 10^4/200 µL was added to each well of a 96-well cell culture plate, and then cultured in an incubator with 5% CO2 at 37 °C for 24 hours. After the culture was complete and all F12K medium was removed, all wells were washed once with 100 µL of PBS, and treated with 160 µL of serum-free F12K medium. Then, 20 µL of IL-1β diluted 10-fold to a concentration of 1 ng/mL in serum-free F12K medium was treated to wells to be treated with IL-1β, and 20 µL of serum-free F12K medium was treated to wells not treated with IL-1β. For the wells to be treated with the compound, 20 µL of the compound dissolved in 100% DMSO was diluted to a concentration 10 times of the desired compound concentration in serum-free F12K medium so that the final DMSO concentration treated to the cells was 0.1%, and for the wells not to be treated with the compound, 20 µL of DMSO diluted in serum-free F12K medium so that the final DMSO concentration treated to the cells was 0.1% was treated. In order to confirm the increase or decrease in the secretion amount of PGE2 in the supernatant collected after culturing for 24 hours in an incubator with 5% CO2 at 37 °C, PGE2 was quantified using the Prostaglandin E2 Parameter (SKGE004B).

| SMILES | IC50 (human 15-PGDH) [nM] | fold induction at 1 µM (A549 cells) |
| --- | --- | --- |
| Cc1nnc(-c2ncc(-c3cccc4c(C(=O)N5CCCCC5)cnn34)cc2F)o1 [Example 379, [7-[5-fluoro-6-(5-methyl-1,3,4-oxadiazol-2-yl)-3-pyridyl]pyrazolo[1,5-a]pyridin-3-yl]-(1-piperidyl)methanone] | ≤ 100 | > 1.5 |
| O=C(c1cnn2c(-c3cnn(Cc4ncon4)c3)cccc12)N1CCCCC1 [Example 395, (7-(1-((1,2,4-oxadiazol-3-yl)methyl)-1H-pyrazol-4-yl)pyrazolo[1,5-a]pyridin-3-yl)(piperidin-1-yl)methanone] | ≤ 100 | > 1.5 |
| O=C(c1cnn2c(-c3ccccc3)cccc12)N1CC2CCC1C2 (centres unmarked) [Example 227, (2-azabicyclo[2.2.1]heptan-2-yl)(7-phenylpyrazolo[1,5-a]pyridin-3-yl)methanone] | ≤ 100 | > 1.5 |
| O=C(c1cncc(-c2cccc3c(C(=O)N4CCCCC4)cnn23)c1)N1CC(=NO)C1 [Example 230, (3-hydroxyiminoazetidin-1-yl)-[5-[3-(piperidine-1-carbonyl)pyrazolo[1,5-a]pyridin-7-yl]-3-pyridyl]methanone] | ≤ 100 | > 1.5 |
| CCC1CCCN(C(=O)c2cnn3c(-c4ccc(F)nc4)cccc23)C1 (centres unmarked) [Example 337, (3-ethylpiperidin-1-yl)(7-(6-fluoropyridin-3-yl)pyrazolo[1,5-a]pyridin-3-yl)methanone] | ≤ 100 | > 1.5 |
| O=C(Nc1ccnnc1)c1cncc(-c2cccc3c(C(=O)N4CCCCC4)cnn23)c1 [Example 56, 5-(3-(piperidine-1-carbonyl)pyrazolo[1,5-a]pyridin-7-yl)-N-(pyridazin-4-yl)nicotinamide] | ≤ 100 | > 1.5 |
| O=C1NCc2ccc(-c3cccc4c(C(=O)N5CCC(F)(F)CC5)cnn34)cc21 [Example 234, 6-(3-(4,4-difluoropiperidine-1-carbonyl)pyrazolo[1,5-a]pyridin-7-yl)isoindolin-1-one] | ≤ 100 | > 1.5 |
| O=C(c1cncc(-c2cccc3c(C(=O)N4CCCCC4)cnn23)c1)N1CC(O)C1 [Example 42, (3-hydroxyazetidin-1-yl)(5-(3-(piperidine-1-carbonyl)pyrazolo[1,5-a]pyridin-7-yl)pyridin-3-yl)methanone] | ≤ 100 | > 1.5 |
| O=C(c1cnn2c(NCCc3ccncc3)cccc12)N1CCCCC1 [Example 149, piperidin-1-yl(7-((2-(pyridin-4-yl)ethyl)amino)pyrazolo[1,5-a]pyridin-3-yl)methanone] | ≤ 100 | > 1.5 |
| CN(C)C1CN(c2ccc(-c3cccc4c(C(=O)N5CCCCC5)cnn34)cn2)C1 [Example 218, (7-(6-(3-(dimethylamino)azetidin-1-yl)pyridin-3-yl)pyrazolo[1,5-a]pyridin-3-yl)(piperidin-1-yl)methanone] | ≤ 100 | > 1.5 |
| CN1CCC(NC(=O)c2cncc(-c3cccc4c(C(=O)N5CCCCC5)cnn34)c2)CC1 [Example 47, N-(1-methylpiperidin-4-yl)-5-(3-(piperidine-1-carbonyl)pyrazolo [1,5-a]pyridin-7-yl)nicotinamide] | ≤ 100 | > 1.5 |
| O=C1NCc2ccc(-c3cccc4c(C(=O)N5CCCC(F)(F)C5)cnn34)cc21 [Example 382, 6-(3-(3,3-difluoropiperidine-1-carbonyl)pyrazolo[1,5-a]pyridin-7-yl)isoindolin-1-one] | ≤ 100 | > 1.5 |
| O=C(c1cncc(-c2cccc3c(C(=O)N4CCCCC4)cnn23)c1)N1CCC1 [Example 41, azetidin-1-yl(5-(3-(piperidine-1-carbonyl)pyrazolo[1,5-a]pyridin-7-yl)pyridin-3-yl)methanone] | ≤ 100 | > 1.5 |
| CN1CCC(C(=O)Nc2cccc(-c3cccc4c(C(=O)N5CCCCC5)cnn34)c2)CC1 [Example 93, 1-methyl-N-(3-(3-(piperidine-1-carbonyl)pyrazolo[1,5-a]pyridin-7-yl)phenyl)piperidine-4-carboxamide] | ≤ 100 | > 1.5 |
| O=C(c1cnn2c(-c3ccc(N4CC5(CCC5)C4)nc3)cccc12)N1CCCCC1 [Example 220, (7-(6-(2-azaspiro[3.3]heptan-2-yl)pyridin-3-yl)pyrazolo[1,5-a]pyridin-3-yl)(piperidin-1-yl)methanone] | ≤ 100 | > 1.5 |
| CC(C)N1CCN(C(=O)c2ccc(-c3cccc4c(C(=O)N5CCCCC5)cnn34)cn2)CC1 [Example 84, (4-isopropylpiperazin-1-yl)(5-(3-(piperidine-1-carbonyl)pyrazolo[1,5-a]pyridin-7-yl)pyridin-2-yl)methanone] | ≤ 100 | > 1.5 |
| O=C(Nc1ccc(-c2cccc3c(C(=O)N4CCCCC4)cnn23)cc1)C1CCCCC1 [Example 102, N-(4-(3-(piperidine-1-carbonyl)pyrazolo[1,5-a]pyridin-7-yl)phenyl)cyclohexanecarboxamide] | ≤ 100 | < 1.5 |
| O=C(c1cncc(-c2cccc3c(C(=O)N4CCCCC4)cnn23)c1)N1CCC2(CC1)COC2 [Example 226, 2-oxa-7-azaspiro[3.5]nonan-7-yl-[5-[3-(piperidine-1-carbonyl)pyrazolo[1,5-a]pyridin-7-yl]-3-pyridyl]methanone] | ≤ 100 | > 1.5 |
| CN(C)CC(=O)Nc1ccc(-c2cccc3c(C(=O)N4CCCCC4)cnn23)cn1 [Example 104, 2-(dimethylamino)-N-(5-(3-(piperidine-1-carbonyl)pyrazolo[1,5-a]pyridin-7-yl)pyridin-2-yl)acetamide] | ≤ 100 | > 1.5 |
| Cn1nccc1-c1cc(-c2cccc3c(C(=O)N4CCCCC4)cnn23)cc(N2CC(O)C2)n1 [Example 357, (7-(2-(3-hydroxyazetidin-1-yl)-6-(1-methyl-1H-pyrazol-5-yl)pyridin-4-yl)pyrazolo[1,5-a]pyridin-3-yl)(piperidin-1-yl)methanone] | ≤ 100 | > 1.5 |
| O=C(c1cnn2c(-c3ccc(Cl)nc3)cccc12)N1CCCCC1 [Example 314, (7-(6-chloropyridin-3-yl)pyrazolo[1,5-a]pyridin-3-yl)(piperidin-1-yl)methanone] | ≤ 100 | > 1.5 |
| CN1Cc2ccc(-c3cccc4c(C(=O)N5CCC(F)CC5)cnn34)cc2C1=O [Example 231, 6-(3-(4-fluoropiperidine-1-carbonyl)pyrazolo[1,5-a]pyridin-7-yl)-2-methylisoindolin-1-one] | ≤ 100 | > 1.5 |
| O=C(c1cnn2c(-c3cc(Br)cnc3F)cccc12)N1CCCCC1 [Example 265, (7-(5-bromo-2-fluoropyridin-3-yl)pyrazolo[1,5-a]pyridin-3-yl)(piperidin-1-yl)methanone] | ≤ 100 | > 1.5 |
| O=C(c1cnn2c(-c3cc(F)c(-c4noc(=O)[nH]4)c(F)c3)cccc12)N1CCCCC1 [Example 331, 3-(2,6-difluoro-4-(3-(piperidine-1-carbonyl)pyrazolo[1,5-a]pyridin-7-yl)phenyl)-1,2,4-oxadiazol-5(4H)-one] | ≤ 100 | > 1.5 |
| O=C1NCc2ccc(-c3cccc4c(C(=O)N5CCC(F)CC5)cnn34)cc21 [Example 155, 6-(3-(4-fluoropiperidine-1-carbonyl)pyrazolo[1,5-a]pyridin-7-yl)isoindolin-1-one] | ≤ 100 | > 1.5 |
| O=C(c1cnn2c(-c3cncc(-c4ncon4)c3)cccc12)N1CCCCC1 [Example 374, (7-(5-(1,2,4-oxadiazol-3-yl)pyridin-3-yl)pyrazolo[1,5-a]pyridin-3-yl)(piperidin-1-yl)methanone] | ≤ 100 | > 1.5 |
| O=C(Nc1cccnc1)c1cncc(-c2cccc3c(C(=O)N4CCCCC4)cnn23)c1 [Example 53, 5-(3-(piperidine-1-carbonyl)pyrazolo[1,5-a]pyridin-7-yl)-N-(pyridin-3-yl)nicotinamide] | ≤ 100 | > 1.5 |
| CC(C)Nc1ccc(-c2cccc3c(C(=O)N4CCCCC4)cnn23)cn1 [Example 109, (7-(6-(isopropylamino)pyridin-3-yl)pyrazolo[1,5-a]pyridin-3-yl)(piperidin-1-yl)methanone] | ≤ 100 | > 1.5 |
